Laboratory results reported in article PMC4434572, “Identification of novel drugs to target dormant micrometastases” (BMC Cancer, 2015).
Where two headings read alike, the source gives them in different places.

System: cancer cells on SISgel or plastic
Assay: Activity of leads and analogs on cancer cells grown on plastic vs SISgel (cell line not stated)
Type: cell-based
Details: for Hit: YES/NO; for SR: ratio IC50-p/IC50-S
Description: The NCI library is no longer available in the form used here, but how it was constructed is described (http://dtp.nci.nih.gov/branches/dscb/diversity_explanation.html). The ChemBridge library is a subset (Set Code NM1024) of the full 50,000 compound library (http://www.chembridge.com/screening_libraries/diversity_libraries/). Compounds were diluted to 100 μM before use. SISgel was prepared as described previously from powdered porcine small intestine submucosa obtained from Cook Biotech (W. Lafayette, IN). It is a natural product that is used extensively in tissue engineering as a bioscaffold. J82 bladder cancer cells and other cell lines were obtained from the ATCC (Bethesda, MD). […] Efficacy in vitro was assessed by plating 30,000 cells in 50 μL of high glucose DMEM with penicillin-streptomycin and 10 % fetal calf serum on SISgel in a 96-well plate containing 50 μL of gelled SISgel per well. Cells were allowed to attach and assume the SISgel phenotype for 48 h. A matching plate without SISgel was prepared 24 h later by pipetting 3,000 cells in 100 μL of high glucose DMEM with penicillin-streptomycin and 10 % fetal calf serum into each well of 96 well plate. The cells were allowed to attach and grow for 24 h. […] The cells were exposed to drug in fresh medium for 48 h, at which time the cell number was determined using the CFDA-AM cellular esterase proliferation assay (cat. #C1354, Life Technologies). For screening the results are reported as the ratio of cell count of cells on the plastic surface to the cell count on SISgel. An initial difference of 1.5 fold identified potential hits. All potential hits were confirmed in triplicate. […] Data were analyzed using nonlinear regression to a sigmoid curve with Prism 4 (GraphPad Software, Inc., LaJolla, CA). […]

[1] = cells on SISgel, read-out: IC50-S
[2] = cells on plastic, read-out: IC50-p

IC50 [1] | IC50 [2] | Compound | Hit | SR | IC50 (read-out: IC50-S) | IC50 (read-out: IC50-p)
26 µM | 33 µM | O=S(=O)([O-])c1ccc2c(N=Nc3ccc(S(=O)(=O)[O-])c4ccccc34)c(O)c(S(=O)(=O)[O-])cc2c1.[Na+].[Na+].[Na+] [Amaranthe] |  | 1.3 |  | 
64 µM | 135 µM | O=S(=O)([O-])c1ccc2c(N=Nc3c(O)cc(S(=O)(=O)[O-])c4ccccc34)c(O)c(S(=O)(=O)[O-])cc2c1.[Na+].[Na+].[Na+] [HydroxyNapthol Blue] | YES | 2.1 |  | 
122 µM | 212 µM | Nc1c(N=Nc2cccc([N+](=O)[O-])c2)c(S(=O)(=O)[O-])cc2cc(S(=O)(=O)[O-])c(N=Nc3ccccc3)c(O)c12.[Na+].[Na+] [Acid Blue 29] |  | 1.7 |  | 
107 µM | 124 µM | O=S(=O)([O-])c1cc(S(=O)(=O)[O-])c2c(N=Nc3ccc(S(=O)(=O)[O-])c4ccccc34)c(O)c(S(=O)(=O)[O-])cc2c1.[Na+].[Na+].[Na+].[Na+] [Ponceau 6R] |  | 1.2 |  | 
36 µM | 159 µM | Cc1cc(-c2ccc(/N=N/c3c(S(=O)(=O)O)cc4cc(S(=O)(=O)O)cc(N)c4c3O)c(C)c2)ccc1/N=N/c1c(S(=O)(=O)O)cc2cc(S(=O)(=O)O)cc(N)c2c1O [Trypan Blue] | YES | 4.5 |  | 
15 µM | 38 µM | Cc1ccc(N=Nc2c(O)c(S(=O)(=O)[O-])cc3cc(S(=O)(=O)[O-])ccc23)c(C)c1.[Na+].[Na+] [Ponceau Xylidine] | YES | 2.6 |  | 
33 µM | 94 µM | O=S(=O)([O-])c1cc(O)c2c(N=Nc3c(S(=O)(=O)[O-])cc4cc(S(=O)(=O)[O-])cc(O)c4c3O)cc(S(=O)(=O)[O-])cc2c1.[Na+].[Na+].[Na+].[Na+] [Beryllon II] | YES | 3 |  | 
19 µM | 38 µM | O=S(=O)([O-])c1ccc(N=Nc2c(S(=O)(=O)[O-])cc3cc(S(=O)(=O)[O-])cc(O)c3c2O)cc1.[Na+].[Na+].[Na+] [Sulfanilic Acid Azochromotrop] | YES | 2.0 |  | 
34 µM | 71 µM | CC(=O)Nc1ccc(N=Nc2c(S(=O)(=O)[O-])cc3cc(S(=O)(=O)[O-])cc(O)c3c2O)cc1.[Na+].[Na+] [Chromotrope 6B] | YES | 2.1 |  | 
34 µM | 57 µM | O=S(=O)([O-])c1ccccc1N=Nc1c(S(=O)(=O)[O-])cc2cc(S(=O)(=O)[O-])c(N=Nc3ccccc3S(=O)(=O)[O-])c(O)c2c1O.[Na+].[Na+].[Na+].[Na+] [Sulfanazo II] | YES | 2 |  | 
21 µM | 23 µM | O=S(=O)(O)c1ccc2c(O)c(N=Nc3cccc4ccccc34)c(S(=O)(=O)O)cc2c1.[Na+] [Acid Dye (Azo Red)] |  | 1 |  | 
72 µM | 146 µM | O=S(=O)([O-])c1cc2cc(S(=O)(=O)O)ccc2c(N=Nc2c(O)cc(S(=O)(=O)[O-])c3ccccc23)c1O.[Na+].[Na+] [Hydroxy Naphthol Blue] | YES | 2.0 |  | 
40 µM | 71 µM | O=[N+]([O-])c1ccc(N=Nc2c(S(=O)(=O)[O-])cc3cc(S(=O)(=O)[O-])cc(O)c3c2O)cc1.[Na+].[Na+] [Chromotrope 2B] | YES | 1.8 |  | 
23 µM | 46 µM | O=S(=O)(O)c1cc(Cl)cc(N=Nc2c(S(=O)(=O)O)cc3cc(S(=O)(=O)O)c(N=Nc4cc(Cl)cc(S(=O)(=O)O)c4O)c(O)c3c2O)c1O [Sulfochlorophenol S] | YES | 2.0 |  | 
51 µM | 85 µM | CC(=O)Nc1ccc(N=Nc2c(N)ccc3cc(S(=O)(=O)O)cc(O)c23)c(S(=O)(=O)O)c1.N.N [Acid Red 37] | YES | 1.7 |  | 
22 µM | 26 µM | O=[N+]([O-])c1ccc(N=Nc2c(S(=O)(=O)[O-])cc3cc(S(=O)(=O)[O-])cc(O)c3c2O)cc1.[Na+].[Na+] [Acid Red 60 Chromotrope 2B] |  | 1.2 |  | 
70 µM | 74 µM | Nc1cc(S(=O)(=O)[O-])cc2cc(S(=O)(=O)[O-])c(N=Nc3cc([N+](=O)[O-])ccc3O)c(O)c12.[Na+].[Na+] [Palatine Chrome Green] |  | 1.1 |  | 

The remaining lines, values behind:

Compound | IC50 [1] | IC50 [2] | Hit | SR | IC50 (read-out: IC50-S) | IC50 (read-out: IC50-p)
Cc1cc(C)c(S(=O)(=O)[O-])cc1N=Nc1cc(S(=O)(=O)[O-])c2ccccc2c1O.[Na+].[Na+] [Ponceau SX] | 54.1 µM | 208 µM | YES | 3.8 |  | 
O=S(=O)(O)c1cc(O)c2c(N=Nc3c(S(=O)(=O)O)cc4cc(S(=O)(=O)O)cc(N=Nc5c(S(=O)(=O)O)cc6cc(S(=O)(=O)O)cc(O)c6c5O)c4c3O)cc(S(=O)(=O)O)cc2c1 [Calichrome] | 375 µM | 464 µM |  | 1.2 |  | 
nitrazine Yellow | 33 µM | 65 µM | YES | 2.0 |  | 
O=S(=O)([O-])c1ccc(N=Nc2c(O)ccc3ccccc23)cc1.[Na+] [Acid Orange 7] | 400 µM | 114 µM |  | 0.29 |  | 
CCOc1ccc(Nc2ccc(C(=C3C=CC(=[N+](CC)Cc4cccc(S(=O)(=O)[O-])c4)C=C3C)c3ccc(N(CC)Cc4cccc(S(=O)(=O)[O-])c4)cc3C)cc2)cc1.[Na+] [Comassie Brilliant Blue] | 125 µM | 201 µM |  | 1.6 |  | 
COc1ccccc1N=Nc1c(S(=O)(=O)[O-])cc2cc(S(=O)(=O)[O-])cc(NC(C)=O)c2c1O.[Na+].[Na+] [Pontacyl Carmine 2B] | 24 µM | 53 µM | YES | 2.2 |  | 
O=S(=O)([O-])c1cc(Cl)cc(N=Nc2ccc3c(S(=O)(=O)[O-])cccc3c2O)c1O.[Na+].[Na+] [Mordant Blue 9] | 176 µM | 323 µM |  | 1.8 |  | 
CCN(Cc1cccc(S(=O)(=O)[O-])c1)c1ccc(C(=C2C=CC(=[N+](CC)Cc3cccc(S(=O)(=O)[O-])c3)C=C2)c2ccccc2)cc1.[Na+] [Acid Green 3] | 666 µM | 492 µM |  | 0.74 |  | 
CCN(Cc1cccc(S(=O)(=O)[O-])c1)c1ccc(C(=C2C=CC(=[N+](CC)Cc3cccc(S(=O)(=O)[O-])c3)C=C2)c2ccccc2Cl)cc1.[Na+] [Alizarin Green] | 621 µM | 414 µM |  | 0.67 |  | 
Cc1ccc(NC(=O)c2cc3ccccc3c(N=Nc3cc(S(=O)(=O)[O-])ccc3O)c2O)c(C)c1.[Na+] [Xylidyl Blue 1] | 45 µM | 106 µM | YES | 2.4 |  | 
O=S(=O)([O-])c1cc(Nc2nc(Cl)nc(Cl)n2)c2c(O)c(N=Nc3ccccc3)c(S(=O)(=O)[O-])cc2c1.[Na+].[Na+] [Procion Red Mx - 5B] | 57 µM | 77 µM |  | 1.4 |  | 
Cc1cc(C)c(N=Nc2c(O)c(S(=O)(=O)[O-])cc3cc(S(=O)(=O)[O-])ccc23)cc1C.[Na+].[Na+] [Ponceau 3R] | 111 µM | 146 µM |  | 1.3 |  | 
O=S(=O)([O-])c1cc(S(=O)(=O)[O-])c2c(N=Nc3ccc(N=Nc4ccccc4)cc3)c(O)ccc2c1.[Na+].[Na+] [Brilliant Crocein Moo] | 47 µM | 82 µM | YES | 1.8 |  | 
O=S(=O)([O-])c1cc(O)c2c(O)c(N=Nc3ccccc3)c(S(=O)(=O)[O-])cc2c1.[Na+].[Na+] [Chromotrope 2R] | 94 µM | 92 µM |  | 0.98 |  | 
O=S(=O)(O)c1cc2cc(S(=O)(=O)O)c(N=Nc3ccccc3[As](=O)(O)O)c(O)c2c(O)c1N=Nc1ccccc1[As](=O)(O)O [Arsenazo III] | 34 µM | 47 µM |  | 1.4 |  | 
Cn1c(=O)c2[nH]c(-c3ccc(S(=O)(=O)O)cc3)nc2n(C)c1=O.O [8-(p-Sulfophenyl)theophylline hydrate] |  |  |  | 2.5 | 140 µM | 346 µM
O=S(=O)([O-])c1cc(S(=O)(=O)[O-])c2c(N=Nc3ccc(S(=O)(=O)[O-])c4ccccc34)c(O)ccc2c1.[Na+].[Na+].[Na+] [New Coccine] | 27 µM | 43 µM | YES | 1.6 |  | 
O=S(=O)(O)c1ccc2c(N=Nc3c(O)c(S(=O)(=O)O)cc4cc(S(=O)(=O)O)ccc34)c(O)c(S(=O)(=O)O)cc2c1 [2-2-dihydroxy-1-1-azo-naphthalene-3-3-6] | 111 µM | 213 µM |  | 1.9 |  | 
CCN(Cc1cccc(S(=O)(=O)[O-])c1)c1ccc(C(=C2C=CC(=[N+](C)C)C=C2)c2ccc(N(CC)Cc3cccc(S(=O)(=O)O)c3)cc2)cc1.[Na] [Acid Violet 49] | 86 µM | 64 µM |  | 0.75 |  | 
